In publication PMC11678531, “C118P Suppresses Gastric Cancer Growth via Promoting Autophagy–Lysosomal Degradation of RAB1A” (Pharmaceutics, 2024):

Target: T1, RAB1A (Human Rab1a Recombinant protein) (Homo sapiens, UniProt P62820)
T1 construct: commercial recombinant protein (Shanghai Chunmai Biotechnology); RED-NHS labelled
Experiment: microscale thermophoresis
Type: binding
Conditions: RED-NHS labelled protein; room temperature; C118P 0.61 pM to 20 µM

T1 sequence (P62820 2-205): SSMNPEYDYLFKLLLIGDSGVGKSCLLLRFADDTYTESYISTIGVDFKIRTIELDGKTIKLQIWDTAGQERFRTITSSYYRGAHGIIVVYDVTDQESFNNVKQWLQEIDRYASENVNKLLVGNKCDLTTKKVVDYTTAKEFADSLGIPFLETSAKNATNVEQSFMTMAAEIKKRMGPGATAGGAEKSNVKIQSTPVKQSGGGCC

- Kd: 3.13 nM
Compound: COc1cc(OC)cc(-c2nc[nH]c2-c2ccc(OC)c(OP(=O)(O)O)c2)c1 [C118P]
